Reference: patent EP0415304A2, “Dipyrido[3,2-b:2',3'-e][1,4]oxazepin (and thiazepin)-6(5H)-ones and their use in the prevention or treatment of aids” (BOEHRINGER INGELHEIM PHARMACEUTICALS INC., priority 1989, dated 1991)

Molecular target: T1, HIV-1 RT (Human immunodeficiency virus type 1 group M subtype B, UniProt P03367)
T1 construct: Reverse transcriptase enzyme from the LAV strain of Human Immunodeficiency Virus (HIV-1) (1) was isolated from the bacterial strain JM109; made in house; host or cells: E. coli JM109, clone pBRTprtl+ in vector pIB121 under the lac promoter
Test: Reverse Transcriptase (RT) Assay: inhibition of RNA-dependent DNA polymerase activity
Assay type: biochemical
Settings: tested at a concentration of 10µg/ml; read-out: inhibit the enzyme (percent inhibition of RNA-dependent DNA polymerase activity of HIV-1 RT)
Description: Utilizing the Reverse Transcriptase (RT) Assay described below, compounds can be tested for their ability to inhibit the RNA-dependent DNA polymerase activity of HIV-1 RT. The compound described in Example 1, which appears below, was so tested.
Among the enzymes for which Human Immunodeficiency Virus (HIV-1) encodes is a reverse transcriptase (1), so-named because it transcribes a DNA copy from an RNA template. This activity can be quantitatively measured in a cell-free enzyme assay which has been previously described (2), and is based upon the observation that reverse transcriptase is able to use a synthetic template [poly r(C) primed with oligo d(G)] to transcribe a radio-labelled, acid-precipitable DNA strand utilizing ³H-dGTP as a substrate.
Reverse transcriptase enzyme from the LAV strain of Human Immunodeficiency Virus (HIV-1) (1) was isolated from the bacterial strain JM109 (3) expressing the DNA clone pBRTprtl+ (2) which is under the control of the lac promotor in the expression vector pIB121 (4). […]
The 2X concentrated stock reaction mixture is aliquoted and stored at -20°C. […] Each vial receives 2 ml of scintillation cocktail and is counted in a Beckman beta counter. […]

- inhibition at 10 µg/mL: 30%
SMILES: CCCN1C(=O)c2cccnc2Oc2ncccc21 [Example 1, 5,6-Dihydro-5-propyl-6H-dipyrido[3,2-b:2′,3′-e][1,4]oxazepin-6-one]
